Data as given in patent publication US20230405026A1, “A Method of Treating Depression by Immune Modulation” (Mynd Life Sciences Inc., priority 2020, published 2023).

How the values were obtained:
ABCF1 [1] = assay: Escitalopram induction of ABCF1 in RAW macrophages, real time RT-PCR; assay type: cell-based
Protocol: (§1) FIG. 1—illustrates that Escitalopram induces ABCF1 in a Macrophage cell line: RAW macrophages were plated at 1×10^5 cells/well and cultured for 2 days. The cells were incubated with 0.3 mM Escitalopram for 1 hour, and then harvested for total RNA, which was extracted for real time RT-PCR specific for ABCF1 and IL-4. CT values were normalized with CT value for the housekeeping gene from the DMSO control. The difference in the expression after drug treatment is consistent with polarization towards an M2-like phenotype (data were consistent in 3 separate experiments).
(§2) Additionally, noradrenergic or serotonin-norepinephrine reuptake inhibitors used to treat major depressive disorder have anti-inflammatory properties in vitro^55. […] Mechanistically, antidepressants likely mediate this through a reduction in pro-inflammatory cytokines IL-1b, TNFα, and IL-6 with a reciprocal increase in anti-inflammatory cytokines including […]. Studies have also shown that single nucleotide polymorphisms in IL-6 and IL-11, and mRNA levels of TNFα, are predictive of clinical response to the SSRI, escitalopram^63,64. Also, escitalopram modulates mRNA levels of cytokines in mouse brain^65 and decreases cytokine mRNA levels in the circulating immune cells of depression patients^60. […]

ABCF1 [2] = settings: peripheral blood mononuclear cells of patients responding to escitalopram treatment; cited from earlier work
IL-4 = assay: Escitalopram induction of IL-4 in RAW macrophages, real time RT-PCR; assay type: cell-based; settings: RAW macrophage cell line, 0.3 mM Escitalopram, 1 hour, normalized to housekeeping gene, vs DMSO control (FIG. 1)
Protocol: as §1, §2

ABCF1 [3] = assay: Effect of psylocibin, psylocin and analogs on ABCF1 transcription in RAW264.7, qPCR; assay type: cell-based; settings: RAW264.7, 10 nM, 100 nM, 500 nM, normalized against GAPDH (FIG. 2)
Protocol: FIG. 2—illustrates the effect of psylocibin, psylocin and their analogs on ABCF1 transcription in a macrophage cell line. Briefly, the Macrophage cell line RAW264.7 (ATCC) were grown to 80% confluency in growth media (DMEM+ 10% FBS+ glutamine). Dilutions of psylocibin, psylocin and their analogs were made at desired final concentrations for a Dose response experiment. The concentrations' used for this experiment are: 10 nM, 100 nM, 500 nM for Psilocin, Psylocibin, 4-Acetoxy-N, N-dimthyltryptamine, O-Acetyl Psilocin Fumerate, and 4-acetoxyindole. The cells were incubated for 2 hours and then harvested for total RNA, which was extracted for real time RT-PCR specific for ABCF1. Untreated cells were used as negative control and Escitalopram at 0.3 mM was used as a positive control to activate ABCF1 expression for all the experiments. ES=escitalopram; PSYB=Psylocibin; PSIC=Psilocin; DMT=4-Acetoxy-N, N-dimthyltryptamine; APF=O-Acetyl Psilocin Fumerate, and AOI=4-acetoxyindole.
Preparation of Cells: • 1. Macrophage cell line RAW264.7 (ATCC) were grown to 80% confluency in growth media (DMEM+10% FBS+glutamine). • 2. Dilutions of the drugs were made at desired final concentrations for a Dose response experiment. […]
• 1. […] Normalized against the expression level of GAPDH, the fold change expression level of ABCF1 was calculated and tabulated for all treatment conditions.

SMILES	induction of ABCF1 expression (ABCF1 [1]; RAW macrophage cell line, 0.3 mM Escitalopram, 1 hour, normalized to housekeeping gene, vs DMSO control (FIG. 1))	ABCF1 induction in a macrophage cell line (in words) (ABCF1 [1]; RAW macrophages, 0.3 mM, 1 hour (FIG. 1 legend))	transcription of ABCF1 in PBMCs (ABCF1 [2])	induction of IL-4 expression (IL-4)	ABCF1 transcription (in words) (ABCF1 [3])
CN(C)CCC[C@@]1(c2ccc(F)cc2)OCc2cc(C#N)ccc21 [Escitalopram]	approximately 20 fold	induces ABCF1	increased the transcription	approximately 5 fold	
CN(C)CCc1c[nH]c2cccc(O)c12 [psylocin, 4-hydroxy-N,N-dimethyltryptamine]					upregulate ABCF1 transcription
